Assay results published in patent US20220151236A1, “NOVEL OXADIAZOLE COMPOUNDS FOR CONTROLLING OR PREVENTING PHYTOPATHOGENIC FUNGI” (PI INDUSTRIES LTD., priority 2019, published 2022).

Tested on: Phakopsora pachyrhizi
Assay: Phakopsora pachyrhizi Test on Soybean (preventive activity, greenhouse)
Assay type: in vivo
Conditions: preventive spray on young Soybean plants, inoculated one day after treatment, rated 3, 7, 10 and 15 days after application, read-out: Efficacy (% control), disease severity compared to the untreated check
Procedure: Compounds were dissolved in 2% dimethyl sulfoxide/acetone and then mixed with water containing an emulsifier to a calibrated spray volume of 50 mL. This 50 mL spray solution was poured into spray bottles for further applications. To test the preventive activity of compounds, healthy young Soybean plants raised in the greenhouse were sprayed with the active compound preparation at the stated application rates inside the spray cabinets using hollow cone nozzles. One day after treatment, the plants were inoculated with a spore suspension containing 2×10^5 Phakopsora pachyrhizi conidia. The inoculated plants were then kept in a greenhouse chamber at 22-24° C. temperature and 80-90% relative humidity for disease expression. A visual assessment of the compound's performance was carried out by rating the disease severity (0-100% scale) on treated plants 3, 7, 10 and 15 days after application. Efficacy (% control) of the compounds was calculated by comparing the disease rating in the treatment with the one of the untreated control. The sprayed plants were also assessed for plant compatibility by recording symptoms like necrosis, chlorosis and stunting.

COc1cccc(NC(=O)c2cn3ccc(-c4noc(C(F)(F)F)n4)cc3n2)c1 [Compound 1, N-(3-methoxyphenyl)-7-(5-(trifluoromethyl)-1,2,4-oxadiazol-3-yl)imidazo[1,2-a]pyridine-2-carboxamide]
pest or weed control at 500 ppm: ≥ 70%

Cc1ccc(NC(=O)c2cn3ccc(-c4noc(C(F)(F)F)n4)cc3n2)cc1 [Compound 3, N-(p-tolyl)-7-(5-(trifluoromethyl)-1,2,4-oxadiazol-3-yl)imidazo[1,2-a]pyridine-2-carboxamide]
pest or weed control at 500 ppm: ≥ 70%

O=C(Nc1cccc(F)c1)c1cn2ccc(-c3noc(C(F)(F)F)n3)cc2n1 [Compound 4, N-(3-fluorophenyl)-7-(5-(trifluoromethyl)-1,2,4-oxadiazol-3-yl)imidazo[1,2-a]pyridine-2-carboxamide]
pest or weed control at 500 ppm: ≥ 70%

O=C(Nc1ccc(F)cc1F)c1cn2ccc(-c3noc(C(F)(F)F)n3)cc2n1 [Compound 5, N-(2,4-difluorophenyl)-7-(5-(trifluoromethyl)-1,2,4-oxadiazol-3-yl)imidazo[1,2-a]pyridine-2-carboxamide]
pest or weed control at 500 ppm: ≥ 70%

O=C(Nc1ccc(Cl)cc1)c1cn2ccc(-c3noc(C(F)(F)F)n3)cc2n1 [Compound 6, N-(4-chlorophenyl)-7-(5-(trifluoromethyl)-1,2,4-oxadiazol-3-yl)imidazo[1,2-a]pyridine-2-carboxamide]
pest or weed control at 500 ppm: ≥ 70%

O=C(Nc1ccccc1F)c1cn2ccc(-c3noc(C(F)(F)F)n3)cc2n1 [Compound 7, N-(2-fluorophenyl)-7-(5-(trifluoromethyl)-1,2,4-oxadiazol-3-yl)imidazo[1,2-a]pyridine-2-carboxamide]
pest or weed control at 500 ppm: ≥ 70%

O=C(NCc1ccc(C(F)(F)F)cc1)c1cn2ccc(-c3noc(C(F)(F)F)n3)cc2n1 [Compound 8, 7-(5-(trifluoromethyl)-1,2,4-oxadiazol-3-yl)-N-(4-(trifluoromethyl)benzyl)imidazo[1,2-a]pyridine-2-carboxamide]
pest or weed control at 500 ppm: ≥ 70%

O=C(Nc1cccnc1)c1cn2ccc(-c3noc(C(F)(F)F)n3)cc2n1 [Compound 9, N-(pyridin-3-yl)-7-(5-(trifluoromethyl)-1,2,4-oxadiazol-3-yl)imidazo[1,2-a]pyridine-2-carboxamide]
pest or weed control at 500 ppm: ≥ 70%

O=C(NCc1ccccc1)c1cn2ccc(-c3noc(C(F)(F)F)n3)cc2n1 [Compound 10, N-benzyl-7-(5-(trifluoromethyl)-1,2,4-oxadiazol-3-yl)imidazo[1,2-a]pyridine-2-carboxamide]
pest or weed control at 500 ppm: ≥ 70%

O=C(Nc1ccncc1)c1cn2ccc(-c3noc(C(F)(F)F)n3)cc2n1 [Compound 11, N-(pyridin-4-yl)-7-(5-(trifluoromethyl)-1,2,4-oxadiazol-3-yl)imidazo[1,2-a]pyridine-2-carboxamide]
pest or weed control at 500 ppm: ≥ 70%

CNC(=O)c1cn2ccc(-c3noc(C(F)(F)F)n3)cc2n1 [Compound 13, N-methyl-7-(5-(trifluoromethyl)-1,2,4-oxadiazol-3-yl)imidazo[1,2-a]pyridine-2-carboxamide]
pest or weed control at 500 ppm: ≥ 70%

CN(CCOc1ccccc1)C(=O)c1cn2ccc(-c3noc(C(F)(F)F)n3)cc2n1 [Compound 14, N-methyl-N-(2-phenoxyethyl)-7-(5-(trifluoromethyl)-1,2,4-oxadiazol-3-yl)imidazo[1,2-a]pyridine-2-carboxamide]
pest or weed control at 500 ppm: ≥ 70%

N#Cc1ccc(NC(=O)c2cn3ccc(-c4noc(C(F)(F)F)n4)cc3n2)cc1 [Compound 15, N-(4-cyanophenyl)-7-(5-(trifluoromethyl)-1,2,4-oxadiazol-3-yl)imidazo[1,2-a]pyridine-2-carboxamide]
pest or weed control at 500 ppm: ≥ 70%

COc1cccc(NC(=O)c2cn3cc(-c4noc(C(F)(F)F)n4)ccc3n2)c1 [Compound 16, N-(3-methoxyphenyl)-6-(5-(trifluoromethyl)-1,2,4-oxadiazol-3-yl)imidazo[1,2-a]pyridine-2-carboxamide]
pest or weed control at 500 ppm: ≥ 70%
